Among the data in patent US11401278B2, “Macrocyclic indole derivatives” (The Broad Institute, Inc., priority 2017, dated 2022) are EC50 and IC50 values, retold here.

Where a name gives a salt, the structure may show the parent alone. Read-outs that look alike come from different tables or passages of the source.

In data set [1] the test system is SUDHL10. Description: Induction of caspase-3/7 activity (Assay 4), SUDHL10. To be noted: caspase-3/7 induction, median. Format: cell-based. Put shortly: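 DLBCL cells were exposed to compounds for 3 hours at 37 °C, then caspase-3/7 activation was read with Caspase-Glo 3/7 reagent. After subtracting medium-only background, EC50s were derived with fixed C0=1 and the reference compound's maximal induction as plateau.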

The subject of data set [2] is SUDHL10. Nature of the data set: Induction of cytotoxicity (Assay 6), SUDHL10. To be noted: read-out: Cytotox SUDHL10 [M] (median) IC50, CellTiter-Glo, 5 hours, SUDHL10.
The target in another data set is MCL-1 (Homo sapiens (Human), UniProt Q07820, K194A/K197A/R201A). Nature of the data set: Protein-protein interaction assay MCL-1/Noxa BH3 peptide (MCL-1 assay, TR-FRET). Format: binding. To be noted: MBP-MCL-1 / Noxa BH3 peptide, median. Put shortly:
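TR-FRET competition assay read at 665/620 nm, with a Noxa BH3 tracer peptide (1 nM) plus Eu-cryptate anti-MBP and XL665-streptavidin. Compounds (0.1 nM-20 μM, duplicates) were pre-equilibrated 10 min at 22° C with 1 nM MBP-MCL-1 (173-329) in Tris pH 7, NaCl, KF, DTT buffer, then incubated 1 h at 22° C and overnight at 4° C. IC50 came from 4-parameter regression.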
Background: TR-FRET usually uses a lanthanide donor and a delayed reading to cut background.

Sequence of MCL-1 (Q07820 whole entry K194A/K197A/R201A, looked up): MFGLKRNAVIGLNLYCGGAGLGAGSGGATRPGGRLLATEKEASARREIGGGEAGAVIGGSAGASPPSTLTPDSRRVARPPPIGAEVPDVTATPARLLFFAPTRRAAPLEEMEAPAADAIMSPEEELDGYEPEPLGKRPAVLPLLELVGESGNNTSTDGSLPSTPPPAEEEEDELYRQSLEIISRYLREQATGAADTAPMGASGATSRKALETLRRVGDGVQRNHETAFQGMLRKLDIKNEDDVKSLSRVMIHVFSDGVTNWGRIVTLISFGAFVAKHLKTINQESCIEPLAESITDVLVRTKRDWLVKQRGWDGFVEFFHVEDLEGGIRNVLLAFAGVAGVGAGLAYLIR

Usually EC50 stands for the concentration that produces a half-maximal response. Lower therefore signals an effect from little substance. As usually defined, the IC50 is the concentration needed to halve the response being measured. Compound `Cc1c2c(nn1C)CN(C)S(=O)(=O)CCCn1c(C(=O)O)c(CCCOc3cccc4cc(F)ccc34)c3ccc(F)c-2c31` (single isomer, unassigned; enantiomer 1) [Example 38, (−)-4-fluoro-7-{3-[(6-fluoronaphthalen-1-yl)oxy]propyl}-2,3,14-trimethyl-13,13-dioxo-10,11,12,13,14,15-hexahydro-2H-13lambda^6-pyrazolo[3′,4′:4,5][1,2,8]thiadiazacycloundecino-[6,7,8-hi]indole-8-carboxylic acid (Enantiomer 1)] returned an EC50 in the data set on SUDHL10 [1] (3 hours) of 22000 nM. Further, the half-inhibitory concentration (IC50) with SUDHL10 [2] is 2.1e-05 M; against MCL-1 it was 23 nM.

Turning to `CCc1c2c(nn1C)CN(C)S(=O)(=O)CCCn1c(C(=O)O)c(CCCOc3cccc4cc(F)ccc34)c3ccc(F)c-2c31` (single isomer, unassigned; enantiomer 2) [Example 9, (−)-3-Ethyl-4-fluoro-7-{3-[(6-fluoronaphthalen-1-yl)oxy]propyl}-2,14-dimethyl-13,13-dioxo-10,11,12,13,14,15-hexahydro-2H-13λ^6-pyrazolo[3′,4′:4,5][1,2,8]thiadiazacycloundecino-[6,7,8-hi]indole-8-carboxylic acid (Enantiomer 2)], the EC50 in the data set with SUDHL10 [1] (3 hours) is more than 33000 nM. In addition, the values for the IC50 with SUDHL10 [2] and at MCL-1 were more than 3.3e-05 M and 34 nM, respectively.

`CCc1c2c(nn1C)CN(CCCN1CCOCC1)S(=O)(=O)CCCn1c(C(=O)O)c(CCCOc3cccc4ccccc34)c3cccc-2c31` (racemic) [Example 15, (rac)-12-Ethyl-11-methyl-8-(3-morpholinopropyl)-1-(3-(naphthalen-1-yloxy)propyl)-4,5,6,8,9,11-hexahydropyrazolo[3′,4′:4,5][1,2,8]thiadiazacycloundecino[6,7,8-hi]indole-2-carboxylic acid 7,7-dioxide 2,2,2-trifluoroacetic acid salt] returned an EC50 with SUDHL10 [1] (Homo sapiens, SU-DHL10, 3 h) of 6400 nM. Moreover, the IC50 in the data set with SUDHL10 [2] (Homo sapiens, SU-DHL10, 5 h) came to 6.3e-06 M; against MCL-1, 5.6 nM.

Compound `Cc1c2c(nn1C)C(CCN1CCOCC1)N(C)S(=O)(=O)CCCn1c(C(=O)O)c(CCCOc3cccc4cc(F)ccc34)c3ccc(Cl)c-2c31` (single isomer, unassigned; enantiomer 2) [Example 67, 4-chloro-7-{3-[(6-fluoronaphthalen-1-yl)oxy]propyl}-2,3,14-trimethyl-15-[2-(morpholin-4-yl)ethyl]-13,13-dioxo-10,11,12,13,14,15-hexahydro-2H-13lambda^6-pyrazolo[3′,4′:4,5][1,2,8]thiadiazacycloundecino[6,7,8-hi]indole-8-carboxylic acid (Enantiomer 2)] returned a concentration for a half-maximal effect (EC50) in the data set on SUDHL10 [1] (3 hours) of 12 nM. The concentration for half-maximal inhibition (IC50) turned out to be 1.8e-08 M with SUDHL10 [2] and 0.4 nM on MCL-1.

Compound `CCc1c2c(nn1C)C(CCC1CCOCC1)N(C)S(=O)(=O)CCCn1c(C(=O)O)c(CCCOc3cccc4cc(F)ccc34)c3ccc(Cl)c-2c31` (racemic) [Example 59, (rac)-4-chloro-3-ethyl-7-{3-[(6-fluoro-1-naphthyl)oxy]propyl}-2,14-dimethyl-15-[2-(tetrahydro-2H-pyran-4-yl)ethyl]-11,12,14,15-tetrahydro-2H,10H-pyrazolo[3′,4′:4,5][1,2,8]thiadiazacycloundecino[6,7,8-hi]indole-8-carboxylic acid 13,13-dioxide (Racemate 2)] showed an EC50 with SUDHL10 [1] (3 hours) of 78 nM. For the same compound, the IC50 in the data set with SUDHL10 [2] amounted to 1e-07 M; against MCL-1, 1.9 nM.
